Literature values in patent US20080057125A1, “STABLE TABLET DOSAGE FORMS OF PROTON PUMP INHIBITORS” (priority 2005, published 2008).
Where two headings read alike, the source gives them in different places.

How the values were obtained:
[1] = from commercially marketed dosage forms
[2] = 25° C.

Row | percent bioavailability [1] | degradation half-life in aqueous solution ([2]; pH 5.0) | degradation half-life in aqueous solution ([2]; pH 7.0) | Structure (SMILES)
1 | 30-40% |  |  | COc1ccc2[nH]c([S+]([O-])Cc3ncc(C)c(OC)c3C)nc2c1 (stereo not shown) [omeprazole, 2-[2-(3,5-dimethyl-4-methoxy)-pyridylmethylsulfinyl]-(5-methoxy)-benzimidazole]
2 | 80-85% | approximately 0.5 hour | approximately 18 hours | Cc1c(OCC(F)(F)F)ccnc1C[S+]([O-])c1nc2ccccc2[nH]1 (stereo not shown) [Lansoprazole, 2-[[[3-methyl-4-(2,2,2-trifluoroethoxy)-2-pyridyl]methyl]sulfinyl]benzimidazole]
